In brackets after ≈: the same amount, converted by molar mass. Several values for one entry are separate records, joined by “and”; a condition that tells them apart may be missing. Equal entries are not always repeated. Where two headings read alike, the source gives them in different places.
Tests used:
[1] = test system: human colon carcinoma cells HCT-15; experiment: Human colon tumor test in vitro, HCT-15 cell growth inhibition; format: cell-based; conditions: for in vitro HCT-15 ID50 (50 percent inhibition of number of doublings): 4320 min; for IC50: Homo sapiens, HCT-15, 72 h, read-out: in vitro HCT-15 ID50 (50 percent inhibition of number of doublings)
Method in brief: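 HCT-15 human colon adenocarcinoma cells in RPMI 1640 with 10% heat-inactivated FCS, compound added on day 1 and cells counted by hemocytometer on day 4. ID50 is the concentration (μg/ml) halving the number of doublings, from log-log dose-response plots.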

L1210 leukemia = experiment: Lymphoid Leukemia L1210, survival of tumored mice; format: in vivo, CD2F1 mice; conditions: for response vs control in vivo at 200 mg/kg: 200 mg/kg i.p.
Method in brief: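 Male CD2 F1 mice, six per group, received 10^5 L1210 cells i.p. on day 0. Compounds in hydroxypropylcellulose, saline/Tween 80 or saline were given i.p. at various doses once daily on days 1-9, with vehicle controls.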

melanotic melanoma B16 = experiment: Melanotic Melanoma B16 test, survival of tumored mice; format: in vivo, B6C3F1 mice; conditions: for T/C × 100 (median survival time): 9 days, 2 tests
Description: The efficacy of the compounds of this invention against the transplanted mouse tumors was evaluated in test systems currently in use at the National Cancer Institute for the detection and assessment of anticancer activity. […] J. Cancer, 17, 129-142, (1981); Venditti, J. M., Seminars in Oncology, 8 (4) (1981); Goldin, A. and J. M. Venditti, in Recent Results in Cancer Research, 70, S. K. Carter and Y. Sakurai, Eds., Springer-Verlag, Berlin/Heidelberg, 1980].
The animals used were B6 C3 F1 mice, all of one sex, weighing a minimum of 18 g for males and 17 g for females and all within a 4 g weight range at the start of the test. The test group comprised 9 or 10 mice. The tumor was implanted in each of the test mice by the subcutaneous injection of 0.5 ml of a tumor homogenate prepared by homogenizing a 1 g portion of melanotic melanoma in 10 ml of cold physiological saline. The test compounds suspended in hydroxypropylcellulose were administered intraperitoneally at various doses once daily for nine consecutive days starting on day one relative to the day of tumor inoculation (day 0). The control mice received injections of hydroxypropylcellulose vehicle only. The mice were weighted and survivors were recorded on a regular basis for 60 days. The median survival times and the ratio of the median survival times for treated (T) to control (C) mice were calculated. The median survival time of the nontreated tumored mice ranged from 15 to 17 days. Drug effectiveness was assessed on the basis of the survival time. Results were expressed as a percentage of the control survival time (Survival Time T/C ×100%). The criterion for effectiveness was determined by: T/C ×100 ≥125 percent.

human colon tumor HCT-15 = experiment: Human colon tumor HCT-15 in athymic mice; format: in vivo, Swiss NU/NU athymic mice; conditions: for Average Tumor Weight, Day 7 (day treatment was started) / Average Tumor Weight, Day 21 / Net Tumor Weight gain, Day 21 / Tumor Growth Inhibition, Day 21: 5 days from day 7; for toxicity: 40 mg/kg i.p., athymic mice
Description: The compounds of Example 1 and 91 were also tested for effectiveness against a human colon tumor implanted in athymic mice.
The animals used were Swiss NU/NU athymic mice, weighing 20-22 g each at the start of the test. The test group consisted of twelve mice, seven males and five females. The HCT-15 tumor cell line, derived from a patient with adenocarcinoma of the colon, was maintained in culture. The tumor was implanted in each of the test mice by the subcutaneous injection in the flank region of 0.2 ml of physiological saline containing 10^7 HCT-15 cultured cells. Tumors appeared within 72 hours and treatment started one week after tumor inoculation.
Test compounds, suspended in methocel (0.5% in water) or dissolved in water, were injected intraperitoneally once daily for five consecutive days starting on day seven relative to the day of tumor inoculation (day 0). The body weight and the size of the tumor were determined daily. Tumor size was determined by two-dimensional caliper measurements. Tumor weight was estimated from the formula: [formula] tumor weight in which 1=length and w=width of the tumor in mm. The net tumor weight was determined by subtracting from the actual tumor weight at the time of evaluation the initial estimated tumor weight at the time treatment was started (day 7). Drug effectiveness was assessed on the basis of inhibition of the gain in net tumor weight in the treated (T) compared to that of the control (C) mice. Percent tumor growth inhibition was calculated by the formula: [formula]

liver tissue = conditions: cited from earlier work
NF mouse sarcoma = conditions: in vitro; cited from earlier work
colon tumors = conditions: in vivo; cited from earlier work
[2] = HCT-15 cells, compound day 1 to day 4
[3] = Mus musculus, L1210, ip, 720 h, read-out: L1210 Leukemia % T/C (median survival time)

## Cc1c(-c2ccc(C3CCCCC3)cc2)nc2ccc(F)cc2c1C(=O)O [Example 1, 2-(4-Cyclohexylphenyl)-6-fluoro-3-methylquinoline-4-carboxylic acid]
[1]; [2]
  in vitro HCT-15 ID50 (50 percent inhibition of number of doublings): 0.05 µg/mL
L1210 leukemia; [3]
  response vs control in vivo at 200 mg/kg: 189%
Melanotic melanoma B16; 25 mg/kg i.p. once daily
  T/C × 100 (median survival time): 127% and 125%
Melanotic melanoma B16; 50 mg/kg i.p. once daily
  T/C × 100 (median survival time): 148% and 138%
Melanotic melanoma B16; 100 mg/kg i.p. once daily
  T/C × 100 (median survival time): 145% and 155%
Melanotic melanoma B16; 200 mg/kg i.p. once daily
  T/C × 100 (median survival time): 145% and 150%
Melanotic melanoma B16; 400 mg/kg i.p. once daily
  T/C × 100 (median survival time): 131% and 179%
Melanotic melanoma B16; criterion T/C × 100 ≥125 percent
  effectiveness against B16 melanoma in mice: effective against the B16 melanoma in mice
Human colon tumor HCT-15; 50 mg/kg i.p. once daily
  Average Tumor Weight, Day 7 (day treatment was started): 56.3 mg
  Average Tumor Weight, Day 21: 252.9 mg
  Net Tumor Weight gain, Day 21: 196.6 mg
  Tumor Growth Inhibition, Day 21: 33.1%
Human colon tumor HCT-15; 100 mg/kg i.p. once daily
  Average Tumor Weight, Day 7 (day treatment was started): 56.6 mg
  Average Tumor Weight, Day 21: 212.9 mg
  Net Tumor Weight gain, Day 21: 156.3 mg
  Tumor Growth Inhibition, Day 21: 46.8%
Human colon tumor HCT-15; 200 mg/kg i.p. once daily
  Average Tumor Weight, Day 7 (day treatment was started): 56.8 mg
  Average Tumor Weight, Day 21: 156.3 mg
  Net Tumor Weight gain, Day 21: 99.4 mg
  Tumor Growth Inhibition, Day 21: 66.2%

## N.N.[Cl][Pt][Cl] [Cisplatin, reference compound]
[1]; [2]
  in vitro HCT-15 ID50 (50 percent inhibition of number of doublings): 0.66 µg/mL
Melanotic melanoma B16; 1 mg/kg i.p. once daily
  T/C × 100 (median survival time): 175%
Melanotic melanoma B16; 2 mg/kg i.p. once daily
  T/C × 100 (median survival time): 212% and 136%

## O=C(O)c1cc(-c2ccccc2)nc2ccccc12 [cinchophen, 2-phenyl-4-quinoline carboxylic acid]
Liver tissue
  degeneration of liver tissue: can produce a degeneration of liver tissue of a possible precancerous nature
NF mouse sarcoma
  tumoricidal effect: no tumoricidal effect

## O=c1[nH]cc(F)c(=O)[nH]1 [5-Fluorouracil, reference compound]
[1]
  IC50: 0.27 µg/mL (≈ 2.08 µM)
L1210 leukemia; [3]
  response vs control in vivo at 16 mg/kg: 228%
Colon tumors
  effectiveness in treatment of colon tumors in man: not consistently effective
Human colon tumor HCT-15; 20 mg/kg i.p.
  effectiveness: ineffective
Human colon tumor HCT-15; 20 mg/kg i.p. once daily
  Average Tumor Weight, Day 7 (day treatment was started): 56.7 mg
  Average Tumor Weight, Day 21: 421.7 mg
  Net Tumor Weight gain, Day 21: 365 mg
  Tumor Growth Inhibition, Day 21: 0%
Human colon tumor HCT-15
  toxicity: Toxic
Human colon tumor HCT-15; listed as 5-Fluorouacil
  toxicity: toxic

## Cc1c(-c2ccc(C3CCCCC3)cc2)nc2ccc(F)cc2c1C(=O)[O-].[Na+] [Example 91, Sodium 2-(4-Cyclohexylphenyl)-6-fluoro-3-methylquinoline-4-carboxylate]
[1]
  IC50: 0.04 µg/mL
L1210 leukemia; Mus musculus, L1210, ip, 720 h, read-out: L1210 Leukemia % T/C (median survival time), 40 mg/kg i.p., marked * (not explained)
  response vs control in vivo at 40 mg/kg: 140%
L1210 leukemia; Mus musculus, L1210, ip, 720 h, read-out: L1210 Leukemia % T/C (median survival time), 100 mg/kg i.p., nonoptimal Q1DX9 instead of Q3DX9
  response vs control in vivo at 100 mg/kg: 103%
Human colon tumor HCT-15; 10 mg/kg i.p. once daily
  Average Tumor Weight, Day 7 (day treatment was started): 56.8 mg
  Average Tumor Weight, Day 21: 322.8 mg
  Net Tumor Weight gain, Day 21: 266.0 mg
  Tumor Growth Inhibition, Day 21: 10.0%
Human colon tumor HCT-15; 20 mg/kg i.p. once daily
  Average Tumor Weight, Day 7 (day treatment was started): 56.2 mg
  Average Tumor Weight, Day 21: 245.1 mg
  Net Tumor Weight gain, Day 21: 188.9 mg
  Tumor Growth Inhibition, Day 21: 35.7%
Human colon tumor HCT-15; 40 mg/kg i.p. once daily
  Average Tumor Weight, Day 7 (day treatment was started): 56.8 mg
  Average Tumor Weight, Day 21: 256.9 mg
  Net Tumor Weight gain, Day 21: 200.1 mg
  Tumor Growth Inhibition, Day 21: 32.0%

## Cc1c(-c2ccc(-c3ccccc3F)cc2)nc2ccc(F)cc2c1C(=O)O [Example 28, 2-(2'-Fluoro-1,1'-biphenyl-4-yl)-6-fluoro-3-methyl4-quinolinecarboxylic acid]
[1]; [2]
  IC50: < 0.5 µg/mL
L1210 leukemia; Mus musculus, L1210, ip, 720 h, 18 mg/kg i.p., read-out: L1210 Leukemia % T/C (median survival time)
  response vs control in vivo at 18 mg/kg: 174%

## Cc1ccc2nc(-c3ccc(-c4ccccc4)cc3)c(C)c(C(=O)O)c2c1 [Example 14]
[1]; [2]
  IC50: 0.38 µg/mL (≈ 1.08 µM)
L1210 leukemia; Mus musculus, L1210, ip, 720 h, 50 mg/kg i.p., read-out: L1210 Leukemia % T/C (median survival time)
  response vs control in vivo at 50 mg/kg: 195%

## Cc1c(-c2ccc(-c3ccc(Br)cc3)cc2)nc2ccc(F)cc2c1C(=O)O [Example 102]
[1]; [2]
  in vitro HCT-15 ID50 (50 percent inhibition of number of doublings): 1.0 µg/mL and 1.9 µg/mL
L1210 leukemia; Mus musculus, L1210, ip, 720 h, 12.5 mg/kg i.p., read-out: L1210 Leukemia % T/C (median survival time)
  response vs control in vivo at 12.5 mg/kg: 164%

## Cc1c(-c2ccc(OCc3ccccc3)cc2)nc2ccc(F)cc2c1C(=O)O [Example 16]
[1]; [2]
  IC50: 1 µg/mL (≈ 2.58 µM)
L1210 leukemia; Mus musculus, L1210, ip, 720 h, 400 mg/kg i.p., read-out: L1210 Leukemia % T/C (median survival time)
  response vs control in vivo at 400 mg/kg: 190%

## CCC(C)c1ccc(-c2nc3ccc(F)cc3c(C(=O)O)c2C)cc1 (stereo not drawn) [Example 9]
[1]; [2]
  in vitro HCT-15 ID50 (50 percent inhibition of number of doublings): 0.07 µg/mL
L1210 leukemia; [3]
  response vs control in vivo at 200 mg/kg: 127%

## Cc1c(-c2ccc(Oc3ccccc3)cc2)nc2ccc(C(F)(F)F)cc2c1C(=O)O [Example 57]
[1]; [2]
  IC50: < 0.5 µg/mL
L1210 leukemia; Mus musculus, L1210, ip, 720 h, 150 mg/kg i.p., read-out: L1210 Leukemia % T/C (median survival time)
  response vs control in vivo at 150 mg/kg: 197%

## Cc1c(-c2ccc(-c3ccc(F)cc3)cc2)nc2ccc(F)cc2c1C(=O)O [Example 31]
[1]; [2]
  IC50: < 0.5 µg/mL
L1210 leukemia; 37.5 mg/kg i.p.
  L1210 Leukemia % T/C (median survival time): 218%

## Cc1c(-c2ccc(-c3ccccc3)cc2)nc2c(Br)cc(Br)cc2c1C(=O)O [Example 60]
[1]; [2]
  IC50: < 0.5 µg/mL
L1210 leukemia; Mus musculus, L1210, ip, 720 h, 300 mg/kg i.p., read-out: L1210 Leukemia % T/C (median survival time)
  response vs control in vivo at 300 mg/kg: 192%
